From patent publication US20240360151A1 (SANOFI, priority 2023, published 2024)
pIC50: −log10 of the molar value. Structures can show the parent of a compound that is named as a salt.

The compounds below were run against T1, NLRP3 inflammasome (Homo sapiens, UniProt Q96P20) (assay: IL-1β secretion assay (NLRP3 IC50) in LPS-primed, nigericin-activated THP-1 cells, HTRF). Settings: monocytic THP-1 cells; LPS 10 ng/mL 3 h priming, then compound + nigericin 10 μM 2 h; relative IC50, 10 concentrations, geometric mean.
T1 construct: endogenous in cells; host or cells: THP-1 monocytic cells
T1 sequence (Q96P20 whole entry): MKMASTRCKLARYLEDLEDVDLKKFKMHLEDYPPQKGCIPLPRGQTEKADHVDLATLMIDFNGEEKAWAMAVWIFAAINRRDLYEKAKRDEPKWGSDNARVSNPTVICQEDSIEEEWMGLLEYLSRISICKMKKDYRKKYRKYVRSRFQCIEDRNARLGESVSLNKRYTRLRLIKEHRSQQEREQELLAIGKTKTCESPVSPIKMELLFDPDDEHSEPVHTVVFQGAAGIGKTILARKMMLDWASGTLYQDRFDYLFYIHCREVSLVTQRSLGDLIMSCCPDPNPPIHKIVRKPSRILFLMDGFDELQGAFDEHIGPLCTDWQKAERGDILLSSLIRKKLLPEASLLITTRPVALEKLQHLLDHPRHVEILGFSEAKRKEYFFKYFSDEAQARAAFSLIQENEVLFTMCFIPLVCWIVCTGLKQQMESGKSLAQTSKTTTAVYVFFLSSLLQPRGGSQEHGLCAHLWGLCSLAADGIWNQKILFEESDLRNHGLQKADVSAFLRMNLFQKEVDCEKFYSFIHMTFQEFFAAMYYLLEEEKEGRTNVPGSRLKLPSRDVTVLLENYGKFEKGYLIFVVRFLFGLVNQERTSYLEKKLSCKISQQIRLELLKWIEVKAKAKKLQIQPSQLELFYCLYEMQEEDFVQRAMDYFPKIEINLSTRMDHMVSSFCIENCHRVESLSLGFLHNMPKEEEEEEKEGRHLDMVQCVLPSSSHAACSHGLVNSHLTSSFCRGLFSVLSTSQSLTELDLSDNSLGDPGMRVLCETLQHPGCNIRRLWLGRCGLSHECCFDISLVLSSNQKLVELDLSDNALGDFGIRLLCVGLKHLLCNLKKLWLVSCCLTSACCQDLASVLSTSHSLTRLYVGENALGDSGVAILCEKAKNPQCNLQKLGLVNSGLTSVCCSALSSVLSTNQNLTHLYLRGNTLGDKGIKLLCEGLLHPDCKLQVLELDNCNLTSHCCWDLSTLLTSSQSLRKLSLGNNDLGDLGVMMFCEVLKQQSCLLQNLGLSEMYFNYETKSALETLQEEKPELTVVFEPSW
Type: cell-based
Description: Monocytic THP-1 cells were maintained in RPMI 1640 media (Gibco 21875)+10% FBS, (Gibco 10500)+1% penicillin/streptomycin (Gibco 15140-122). Cells were then plated at 40,000 cells per well in 384-well cell culture plates (CoRNning 3542) and maintained with RPMI1640 (Gibco 11835)+5% FBS (Gibco 10500). Activation of the NLRP3 inflammasome requires both an NF-kB-dependent priming step and the addition of a NLRP3 activator. The priming step was induced by LPS (10 ng/mL, InvivoGen ref tlrl-3pelps) for 3 h at 37° C., then compound, in a 1:3 serial dilution series in DMSO (final concentration DMSO 0.1%), and the activator nigericin (Sigma Aldrich, ref: SML1779) 10 μM (final concentration) were added to the cells and co-incubated for 2 hours. 16 μL supernatant was removed, and IL-1β levels were monitored using an HTRF assay (Human IL1b Kits HTRF Cisbio ref: 62HILBPEH) according to manufacturers' instructions.
Data were expressed as percentage of inhibition (I %) as compared to a maximum signal control containing no small molecule (I %=0%) according to the formula: 1%=(1−((Sample−Min))/((Max−Min)))×100, where: • Sample: Signal obtained in the presence of each compound tested, • Max: Maximum signal in the absence of compound added, • Min: Minimum or background signal obtained in the absence of activation signal.
Relative IC50 (IC50 rel) were obtained from a dose response curve with 10 concentrations. Final IC50 rels are expressed as the geometric mean.
Relative IC50 values were estimated with Biost@t-SPEED v2.4 internal software based on SAS system using the 4-parameter logistic model according to Ratkovsky and Reedy (D. A. Ratkovsky, T. J. Reedy, Choosing near-linear parameters in the four parameters logistic model radioligands and related assays. Biometrics, 42 (1986), 575-582): Y=A+C/((1+exp(−B*(log(X)−M)))), where: • A: Lower asymptote (BOTTOM), • A+C: Upper asymptote (TOP), • M: the logarithm of the concentration estimated at the inflexion point (the logarithm of the relative IC50), • B: Slope at the inflexion point of the curve.

`Cc1cc(C)c(-c2ccc(N3CCO[C@@H]4COCC[C@@H]43)nn2)c(O)c1` (racemic) [Example 111, 2-[6-[rac-(4aS,8aS)-3,4a,5,7,8,8a-hexahydro-2H-pyrano[3,4-b][1,4]oxazin-1-yl]pyridazin-3-yl]-3,5-dimethyl-phenol] and `Cc1cc(C)c(-c2ccc(N3CCO[C@@H]4CCOC[C@@H]43)nn2)c(O)c1` (racemic) [Example 403, 3,5-dimethyl-2-[6-[rac-(4aS,8aR)-3,4a,5,7,8,8a-hexahydro-2H-pyrano[4,3-b][1,4]oxazin-4-yl]pyridazin-3-yl]phenol] are within 0.2 log units of each other in pIC50: 6.30 for the first, 6.44 for the second.

`Cc1cc(C)c(-c2ccc(N3CCO[C@@H]4CNC[C@H]43)nn2)c(O)c1` (racemic) [Example 190, 2-[6-[rac-(4aR,7aR)-3,4a,5,6,7,7a-hexahydro-2H-pyrrolo[3,4-b][1,4]oxazin-4-yl]pyridazin-3-yl]-3,5-dimethylphenol] and `Cc1cc(C(F)(F)F)cc(O)c1-c1ccc(N2CCO[C@@H]3CNC[C@H]32)nn1` (racemic) [Example 318, 3-methyl-2-[6-[rac-(4aR,7aR)-3,4a,5,6,7,7a-hexahydro-2H-pyrrolo[3,4-b][1,4]oxazin-4-yl]pyridazin-3-yl]-5-(trifluoromethyl)phenol; hydrochloride] are within 0.2 log units of each other in pIC50: 5.94 for the first, 6.05 for the second.

Compared with `CC(=O)N1C[C@@H]2OCCN(c3ccc(-c4c(C)cc(C)cc4O)nn3)[C@H]2C1` (racemic) [Example 257, 1-[rac-(4aS,7aS)-4-[6-(2-hydroxy-4,6-dimethylphenyl)pyridazin-3-yl]-2,3,4a,5,7,7a-hexahydropyrrolo[3,4-b][1,4]oxazin-6-yl]ethanone], `CC(=O)N1C[C@@H]2OCCN(c3ccc(-c4c(C)cc(C(F)(F)F)cc4O)nn3)[C@@H]2C1` (racemic) [Example 335, 1-[rac-(4aR,7aS)-4-[6-[2-hydroxy-6-methyl-4-(trifluoromethyl)phenyl]pyridazin-3-yl]-2,3,4a,5,7,7a-hexahydropyrrolo[3,4-b][1,4]oxazin-6-yl]ethanone] is 1.19 log units higher in pIC50: 5.13 for the first, 6.32 for the second.

`Cc1cc(C(F)(F)F)cc(O)c1-c1ccc(N2CCO[C@@H]3CN(C)C[C@H]32)nn1` (racemic) [Example 289, 3-methyl-2-[6-[rac-(4aR,7aR)-6-methyl-2,3,4a,5,7,7a-hexahydropyrrolo[3,4-b][1,4]oxazin-4-yl]pyridazin-3-yl]-5-(trifluoromethyl)phenol] and `CCN1CC2OCCN(c3ccc(-c4c(C)cc(C(F)(F)F)cc4O)nn3)C2C1` (racemic) [Example 376, 3-methyl-2-[6-[rac-(4aR,7aR)-6-ethyl-2,3,4a,5,7,7a-hexahydropyrrolo[3,4-b][1,4]oxazin-4-yl]pyridazin-3-yl]-5-(trifluoromethyl)phenol] are within 0.2 log units of each other in pIC50: 6.85 for the first, 6.74 for the second.

`Cc1cc(C)c(-c2ccc(N3CCC[C@@H]4CCN(C)C(=O)[C@@H]43)nn2)c(O)c1` (racemic) [Example 290, rac-(4aR,8aR)-1-[6-(2-hydroxy-4,6-dimethyl-phenyl)pyridazin-3-yl]-7-methyl-3,4,4a,5,6,8a-hexahydro-2H-1,7-naphthyridin-8-one] and `Cc1cc(C)c(-c2ccc(N3CCC[C@@H]4CCNC(=O)[C@@H]43)nn2)c(O)c1` (racemic) [Example 300, rac-(4aR,8aR)-1-[6-(2-hydroxy-4,6-dimethyl-phenyl)pyridazin-3-yl]-2,3,4,4a,5,6,7,8a-octahydro-1,7-naphthyridin-8-one] are within 0.2 log units of each other in pIC50: 6.84 for the first, 6.75 for the second.

Going from `Cc1cc(C(F)(F)F)cc(O)c1-c1ccc(N2CCO[C@H]3CNC[C@H]32)nn1` (racemic) [Example 320, 3-methyl-2-[6-[rac-(4aR,7aS)-3,4a,5,6,7,7a-hexahydro-2H-pyrrolo[3,4-b][1,4]oxazin-4-yl]pyridazin-3-yl]-5-(trifluoromethyl)phenol] to `Cc1cc(C(F)(F)F)cc(O)c1-c1ccc(N2CCO[C@@H]3CCOC[C@@H]32)nn1` (racemic) [Example 438, 3-methyl-2-[6-[rac-(4aS,8aR)-3,4a,5,7,8,8a-hexahydro-2H-pyrano[4,3-b][1,4]oxazin-4-yl]pyridazin-3-yl]-5-(trifluoromethyl)phenol], the pIC50 falls from 6.94 to 6.39 (0.55 log units). The first is the more potent here.

Compared with `CC(=O)N1C[C@@H]2[C@@H](C1)OCCN2c1ccc(-c2c(C)cc(C(F)(F)F)cc2O)nn1` (racemic) [Example 337, 1-[rac-(4aR,7aR)-4-[6-[2-hydroxy-6-methyl-4-(trifluoromethyl)phenyl]pyridazin-3-yl]-2,3,4a,5,7,7a-hexahydropyrrolo[3,4-b][1,4]oxazin-6-yl]ethanone], `Cc1cc(C(F)(F)F)cc(O)c1-c1ccc(N2CCO[C@H]3CCOC[C@@H]32)nn1` (racemic) [Example 448, 3-methyl-2-[6-[rac-(4aS,8aS)-3,4a,5,7,8,8a-hexahydro-2H-pyrano[4,3-b][1,4]oxazin-4-yl]pyridazin-3-yl]-5-(trifluoromethyl)phenol] is 0.89 log units higher in pIC50: 5.54 for the first, 6.43 for the second.

Going from `Cc1cc(C(F)(F)F)cc(O)c1-c1ccc(N2CC[C@@H]3NCC[C@@H]32)nn1` (racemic) [Example 346, 3-methyl-2-[6-[rac-(3aS,6aS)-2,3,3a,5,6,6a-hexahydro-1H-pyrrolo[3,2-b]pyrrol-4-yl]pyridazin-3-yl]-5-(trifluoromethyl)phenol;hydrochloride] to `Cc1cc(C(F)(F)F)cc(O)c1-c1ccc(N2CC[C@@H]3CCN(C)C[C@H]32)nn1` (racemic) [Example 364, 2-[6-[rac-(3aS,7aS)-6-methyl-3,3a,4,5,7,7a-hexahydro-2H-pyrrolo[2,3-c]pyridin-1-yl]pyridazin-3-yl]-3-methyl-5-(trifluoromethyl)phenol], the pIC50 falls from 6.67 to 6.07 (0.60 log units). The first is the more potent here.

Going from `CC(=O)N1CC[C@H]2[C@@H]1CCN2c1ccc(-c2c(C)cc(C(F)(F)F)cc2O)nn1` (racemic) [Example 377, 1-[rac-(3aS,6aS)-1-[6-[2-hydroxy-6-methyl-4-(trifluoromethyl)phenyl]pyridazin-3-yl]-2,3,3a,5,6,6a-hexahydropyrrolo[3,2-b]pyrrol-4-yl]ethanone] to `CCc1cc(C(F)(F)F)cc(O)c1-c1ccc(N2CC[C@@H]3CCN(C)C[C@@H]32)nn1` (racemic) [Example 452, 2-[6-[rac-(3aS,7aR)-6-methyl-3,3a,4,5,7,7a-hexahydro-2H-pyrrolo[2,3-c]pyridin-1-yl]pyridazin-3-yl]-3-ethyl-5-(trifluoromethyl)phenol], the pIC50 rises from 6.53 to 8.30 (1.77 log units). The second is the more potent here.

Going from `CC(=O)N1CC[C@H]2CCN(c3ccc(-c4c(C)cc(C)cc4O)nn3)[C@H]2C1` (racemic) [Example 394, 1-[rac-(3aR,7aR)-1-[6-(2-hydroxy-4,6-dimethyl-phenyl)pyridazin-3-yl]-3,3a,4,5,7,7a-hexahydro-2H-pyrrolo[2,3-c]pyridin-6-yl]ethanone] to `Cc1cc(C)c(-c2ccc(N3CCOC4CCOCC43)nn2)c(O)c1` (racemic) [Example 421, 3,5-dimethyl-2-[6-[rac-(4aS,8aS)-3,4a,5,7,8,8a-hexahydro-2H-pyrano[4,3-b][1,4]oxazin-4-yl]pyridazin-3-yl]phenol], the pIC50 falls from 6.51 to 5.91 (0.60 log units). The first is the more potent here.

For `CCN1CC[C@H]2CCN(c3ccc(-c4c(O)cccc4C(F)(F)F)nn3)[C@H]2C1` (racemic) [Example 458, 2-[6-[rac-(3aS,7aR)-6-ethyl-3,3a,4,5,7,7a-hexahydro-2H-pyrrolo[2,3-c]pyridin-1-yl]pyridazin-3-yl]-3-(trifluoromethyl)phenol], the pIC50 was 8.70.
